Among the data in patent US20230331710A1, “HETEROCYCLIC COMPOUND, PREPARATION METHOD AND USE THEREOF” (SHANGHAI MEIYUE BIOTECH DEVELOPMENT CO. LTD, priority 2020, published 2023) are IC50 values, retold here.

For this assay, the target named is T1, complement factor B (Homo sapiens, UniProt P00751).
T1 construct: from tissue; host or cells: normal human serum from healthy volunteers
Nature of the assay: Complement hemolytic activity assay (lysis of rabbit erythrocytes by normal human serum). It counts as cell-based. Conditions: normal human serum in GVB0 buffer with 10 mM Mg-EGTA, 37° C., A415. The protocol:
4. Complement Hemolytic Activity Assay
The hemolysis experiment was carried out by referring to the description in Xuan Yuan et al., Haematologica. […] Prior to the experiment, the optimal concentration of normal human serum (NHS) required to achieve 100% lysis of rabbit erythrocytes (REs) was obtained by titration testing. […] A GVB0 buffer containing 10 mM Mg-EGTA and containing NHS and RE but no test compound was used as a positive control group (100% lysis). A GVB0 buffer containing 10 mM Mg-EGTA and containing inactivated NHS (heated at 56° C. for 30 min or at 65° C. for 5 min) and RE but no test compound was used as a negative control group (0% lysis). The samples were centrifuged at 2000 g for 5 min, and the supernatant was collected. Absorbance at 415 nm (A415) was measured using a microplate reader (Molecular Devices, SpectraMax i3X). IC50 values were calculated from percent hemolysis as a function of test compound concentration by non-linear regression.

T1 sequence (P00751 26-764): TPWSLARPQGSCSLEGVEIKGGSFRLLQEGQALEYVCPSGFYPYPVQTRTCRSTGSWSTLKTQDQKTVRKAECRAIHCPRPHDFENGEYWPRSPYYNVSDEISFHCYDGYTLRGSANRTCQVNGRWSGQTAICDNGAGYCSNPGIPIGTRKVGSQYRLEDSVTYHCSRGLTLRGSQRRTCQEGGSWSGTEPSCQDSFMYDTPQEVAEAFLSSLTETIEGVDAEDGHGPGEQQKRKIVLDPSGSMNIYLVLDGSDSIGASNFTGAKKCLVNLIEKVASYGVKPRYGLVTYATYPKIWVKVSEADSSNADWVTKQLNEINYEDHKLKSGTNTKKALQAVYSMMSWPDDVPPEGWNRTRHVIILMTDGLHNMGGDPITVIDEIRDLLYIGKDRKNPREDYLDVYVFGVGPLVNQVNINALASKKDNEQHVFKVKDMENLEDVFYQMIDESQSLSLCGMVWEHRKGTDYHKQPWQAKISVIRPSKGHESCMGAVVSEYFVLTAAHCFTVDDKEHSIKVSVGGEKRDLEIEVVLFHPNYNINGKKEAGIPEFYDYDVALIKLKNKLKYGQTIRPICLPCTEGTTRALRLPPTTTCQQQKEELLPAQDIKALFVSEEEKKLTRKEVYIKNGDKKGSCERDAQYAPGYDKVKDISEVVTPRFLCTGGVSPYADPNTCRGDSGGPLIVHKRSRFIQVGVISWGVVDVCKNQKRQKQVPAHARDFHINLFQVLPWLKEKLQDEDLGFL

As to `CCO[C@H]1CCN(Cc2c(OC)cc(C)c3c2CCC(=O)N3)[C@H](c2ccc(C(=O)O)cc2)C1` [Example 16], the IC50 (usually the concentration that inhibits the measured activity by half) was > 5000 nM.

`CCO[C@H]1CCN(Cc2c(OC)cc(C3CC3)c3[nH]ccc23)[C@H](c2ccc(C(=O)O)cc2)C1` [Example 13] showed an IC50 of 1000 nM. This counts as single-digit micromolar.

Turning to `CCO[C@H]1CCN(Cc2c(OC)cc(C(F)(F)F)c3[nH]ccc23)[C@H](c2ccc(C(=O)O)cc2)C1` [Example 11], the IC50 was > 5000 nM.

For the molecule `CCO[C@H]1CCN(Cc2c(OC)cc(C)c3ccccc23)[C@H](c2ccc(C(=O)O)cc2)C1` [Example 14], the IC50 is > 5000 nM.

`CCO[C@H]1CCN(Cc2c(OC)cc(C)c3[nH]cnc23)[C@H](c2ccc(C(=O)O)cc2)C1` [Example 4] yielded an IC50 of 900 nM.

In turn, `CCO[C@H]1CCN(Cc2c(OC)cc(C)c3[nH]ncc23)[C@H](c2ccc(C(=O)O)cc2)C1` [Example 5] registered an IC50 of 1200 nM.

Turning to `CCO[C@H]1CCN(Cc2c(OC)cc(C)c3[nH]nnc23)[C@H](c2ccc(C(=O)O)cc2)C1` [Example 6], the IC50 is > 5000 nM.

On to `CCO[C@H]1CCN(Cc2c(OC)cc(C)c3c2CCC3)[C@H](c2ccc(C(=O)O)cc2)C1` [Example 8], for which the IC50 is > 5000 nM.

`CCO[C@H]1CCN(Cc2c(OC)cc(C)c3c2CCN3)[C@H](c2ccc(C(=O)O)cc2)C1` [Example 1] came in with an IC50 of 1500 nM.

As to `CCO[C@H]1CCN(Cc2c(C)cc(C)c3ccccc23)[C@H](c2ccc(C(=O)O)cc2)C1` [Example 15], the IC50 is > 5000 nM.

Molecule `CCO[C@H]1CCN(Cc2c(OC)cc(C)c3occc23)[C@H](c2ccc(C(=O)O)cc2)C1` [Example 10] registered an IC50 of 1300 nM.

Regarding `CCO[C@H]1CCN(Cc2c(OC)cc(C#N)c3[nH]ccc23)[C@H](c2ccc(C(=O)O)cc2)C1` [Example 12], the IC50 is > 5000 nM.
